According to paper PMC7347136 (PLoS ONE, 2020):

Experiments:
Experiment in all cases: Carna kinase panel screen
Format in all cases: biochemical
Conditions in all cases: read-out: % Inhibition ± SD
HER2 = target: T1, HER2 (Homo sapiens, UniProt P04626)
T1 construct: purchased Carna Biosciences
Protocol: (§1) IC50 values were determined from a 10-point concentration curve using ATP concentrations approximating Km values. […] The percentage inhibition of each test solution was calculated, which allowed the IC50 value to be determined from concentration versus percentage inhibition curves by fitting to a four parameter logistic curve.

TSSK2 = target: T2, TSSK2 (Homo sapiens, UniProt Q96PF2)
T2 construct: purchased Carna Biosciences
T2 sequence (Q96PF2 whole entry): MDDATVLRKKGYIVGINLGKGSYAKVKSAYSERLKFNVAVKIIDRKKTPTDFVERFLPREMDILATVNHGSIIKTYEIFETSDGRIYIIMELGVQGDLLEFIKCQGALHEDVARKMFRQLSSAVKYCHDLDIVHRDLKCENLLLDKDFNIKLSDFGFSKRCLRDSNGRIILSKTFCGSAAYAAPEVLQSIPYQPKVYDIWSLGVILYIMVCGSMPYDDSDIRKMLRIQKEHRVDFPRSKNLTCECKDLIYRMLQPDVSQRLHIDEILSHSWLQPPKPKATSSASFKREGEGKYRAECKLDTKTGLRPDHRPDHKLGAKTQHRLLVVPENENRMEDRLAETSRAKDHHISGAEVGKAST
Protocol: as §1

DAPK1 = target: T3, DAPK1 (Homo sapiens, UniProt P53355)
T3 construct: purchased Carna Biosciences
Protocol: as §1

MAP2K7 = target: T4, MAP2K7 (Homo sapiens, UniProt O14733)
T4 construct: purchased Carna Biosciences
T4 sequence (O14733 whole entry): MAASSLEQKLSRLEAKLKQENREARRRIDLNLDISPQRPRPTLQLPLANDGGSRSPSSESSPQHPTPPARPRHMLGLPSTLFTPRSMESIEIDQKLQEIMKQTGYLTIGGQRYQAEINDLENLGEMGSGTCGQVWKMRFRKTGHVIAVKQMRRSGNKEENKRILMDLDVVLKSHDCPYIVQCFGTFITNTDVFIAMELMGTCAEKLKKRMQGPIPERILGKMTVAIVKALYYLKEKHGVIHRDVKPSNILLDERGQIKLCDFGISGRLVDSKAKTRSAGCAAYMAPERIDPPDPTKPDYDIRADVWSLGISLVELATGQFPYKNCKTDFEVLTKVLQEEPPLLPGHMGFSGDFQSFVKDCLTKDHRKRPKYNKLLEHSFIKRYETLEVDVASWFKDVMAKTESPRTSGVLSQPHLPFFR
Protocol: as §1

FLT3 = target: T5, FLT3 (Homo sapiens, UniProt P36888)
T5 construct: purchased Carna Biosciences
Protocol: as §1

CDK7 = target: T6, CDK7 (Homo sapiens, UniProt P50613)
T6 construct: purchased Carna Biosciences
Protocol: as §1

TXK = target: T7, TXK (Homo sapiens, UniProt P42681)
T7 construct: purchased Carna Biosciences
Protocol: as §1

MLK3 = target: T8, MLK3 (Homo sapiens, UniProt Q16584)
T8 construct: purchased Carna Biosciences
Protocol: as §1

SRM = target: T9, SRM (Homo sapiens, UniProt Q9H3Y6)
T9 construct: purchased Carna Biosciences
Protocol: as §1

MET[Y1235D] = target: T10, MET[Y1235D] (Homo sapiens, UniProt P08581, Y1235D)
T10 construct: purchased Carna Biosciences
Protocol: as §1

TIE2 = target: T11, TIE2 (Homo sapiens, UniProt Q02763)
T11 construct: purchased Carna Biosciences
Protocol: as §1

JNK3 = target: T12, JNK3 (Homo sapiens, UniProt P53779)
T12 construct: purchased Carna Biosciences
Protocol: as §1

Erk2 = target: T13, Erk2 (Homo sapiens, UniProt P28482)
T13 construct: purchased Carna Biosciences
Protocol: as §1

ROCK1 = target: T14, ROCK1 (Homo sapiens, UniProt Q13464)
T14 construct: purchased Carna Biosciences
Protocol: as §1

PDGFRb = target: T15, PDGFRb (Homo sapiens, UniProt P09619)
T15 construct: purchased Carna Biosciences
Protocol: as §1

EphA2 = target: T16, EphA2 (Homo sapiens, UniProt P29317)
T16 construct: purchased Carna Biosciences
T16 sequence (P29317 24-976): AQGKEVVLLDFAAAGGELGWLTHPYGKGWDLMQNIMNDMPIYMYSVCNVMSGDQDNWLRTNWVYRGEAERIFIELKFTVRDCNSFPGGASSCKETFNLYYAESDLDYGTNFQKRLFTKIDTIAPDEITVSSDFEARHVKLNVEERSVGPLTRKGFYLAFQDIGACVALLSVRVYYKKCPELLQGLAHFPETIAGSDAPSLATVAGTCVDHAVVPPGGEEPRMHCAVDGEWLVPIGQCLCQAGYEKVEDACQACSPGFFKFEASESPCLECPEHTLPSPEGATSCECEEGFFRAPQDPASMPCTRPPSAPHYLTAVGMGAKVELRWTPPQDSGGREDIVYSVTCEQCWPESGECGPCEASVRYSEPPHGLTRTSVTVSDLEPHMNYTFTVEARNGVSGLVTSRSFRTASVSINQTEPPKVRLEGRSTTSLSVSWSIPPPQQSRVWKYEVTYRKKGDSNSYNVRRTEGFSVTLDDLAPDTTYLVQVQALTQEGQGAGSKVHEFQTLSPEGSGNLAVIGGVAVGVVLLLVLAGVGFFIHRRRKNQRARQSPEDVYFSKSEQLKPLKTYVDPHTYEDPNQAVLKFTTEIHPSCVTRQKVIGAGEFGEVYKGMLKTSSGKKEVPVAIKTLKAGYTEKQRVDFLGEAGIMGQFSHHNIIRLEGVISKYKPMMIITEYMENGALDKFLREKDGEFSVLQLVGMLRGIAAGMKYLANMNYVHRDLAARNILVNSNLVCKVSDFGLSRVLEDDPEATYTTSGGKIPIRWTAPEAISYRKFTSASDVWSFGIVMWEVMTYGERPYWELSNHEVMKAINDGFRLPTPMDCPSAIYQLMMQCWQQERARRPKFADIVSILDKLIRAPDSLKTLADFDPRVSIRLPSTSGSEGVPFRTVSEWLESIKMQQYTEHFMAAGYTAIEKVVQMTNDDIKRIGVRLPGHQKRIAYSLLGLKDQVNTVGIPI
Protocol: as §1

AKT1 = target: T17, AKT1 (Homo sapiens, UniProt P31749)
T17 construct: purchased Carna Biosciences
Protocol: as §1

FGR = target: T18, FGR (Homo sapiens, UniProt P09769)
T18 construct: purchased Carna Biosciences
Protocol: as §1

IRAK4 = target: T19, IRAK4 (Homo sapiens, UniProt Q9NWZ3)
T19 construct: purchased Carna Biosciences
Protocol: as §1

CDK4 = target: T20, CDK4 (Homo sapiens, UniProt P11802)
T20 construct: purchased Carna Biosciences
Protocol: as §1

PDGFRa[T674I] = target: T21, PDGFRa[T674I] (Homo sapiens, UniProt P16234, T674I)
T21 construct: purchased Carna Biosciences
Protocol: as §1

AKT3 = target: T22, AKT3 (Homo sapiens, UniProt Q9Y243)
T22 construct: purchased Carna Biosciences
Protocol: as §1

MAPKAPK3 = target: T23, MAPKAPK3 (Homo sapiens, UniProt Q16644)
T23 construct: purchased Carna Biosciences
Protocol: as §1

BRAF[V600E] = target: T24, BRAF[V600E] (Homo sapiens, UniProt P15056, V600E)
T24 construct: purchased Carna Biosciences
Protocol: as §1

MLK2 = target: T25, MLK2 (Homo sapiens, UniProt Q02779)
T25 construct: purchased Carna Biosciences
Protocol: as §1

EEF2K = target: T26, EEF2K (Homo sapiens, UniProt O00418)
T26 construct: purchased Carna Biosciences
Protocol: as §1

EGFR = target: T27, EGFR (Homo sapiens, UniProt P00533)
T27 construct: purchased Carna Biosciences
Protocol: as §1

CDK2 = target: T28, CDK2 (Homo sapiens, UniProt P24941)
T28 construct: purchased Carna Biosciences
Protocol: as §1

CHK1 = target: T29, CHK1 (Homo sapiens, UniProt O14757)
T29 construct: purchased Carna Biosciences
Protocol: as §1

CaMK1d = target: T30, CaMK1d (Homo sapiens, UniProt Q8IU85)
T30 construct: purchased Carna Biosciences
T30 sequence (Q8IU85 whole entry): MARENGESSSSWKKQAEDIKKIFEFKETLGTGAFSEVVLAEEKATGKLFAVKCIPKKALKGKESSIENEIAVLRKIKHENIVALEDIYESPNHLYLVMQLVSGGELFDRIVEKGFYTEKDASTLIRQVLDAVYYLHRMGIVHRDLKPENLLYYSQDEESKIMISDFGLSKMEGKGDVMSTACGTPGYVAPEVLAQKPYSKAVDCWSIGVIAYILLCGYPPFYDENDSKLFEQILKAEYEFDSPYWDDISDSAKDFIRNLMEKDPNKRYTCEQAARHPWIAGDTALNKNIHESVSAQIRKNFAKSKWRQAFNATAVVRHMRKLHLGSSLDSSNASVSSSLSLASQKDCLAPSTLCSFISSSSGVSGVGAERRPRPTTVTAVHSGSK
Protocol: as §1

NEK9 = target: T31, NEK9 (Homo sapiens, UniProt Q8TD19)
T31 construct: purchased Carna Biosciences
Protocol: as §1

DDR1 = target: T32, DDR1 (Homo sapiens, UniProt Q08345)
T32 construct: purchased Carna Biosciences
T32 sequence (Q08345 19-913): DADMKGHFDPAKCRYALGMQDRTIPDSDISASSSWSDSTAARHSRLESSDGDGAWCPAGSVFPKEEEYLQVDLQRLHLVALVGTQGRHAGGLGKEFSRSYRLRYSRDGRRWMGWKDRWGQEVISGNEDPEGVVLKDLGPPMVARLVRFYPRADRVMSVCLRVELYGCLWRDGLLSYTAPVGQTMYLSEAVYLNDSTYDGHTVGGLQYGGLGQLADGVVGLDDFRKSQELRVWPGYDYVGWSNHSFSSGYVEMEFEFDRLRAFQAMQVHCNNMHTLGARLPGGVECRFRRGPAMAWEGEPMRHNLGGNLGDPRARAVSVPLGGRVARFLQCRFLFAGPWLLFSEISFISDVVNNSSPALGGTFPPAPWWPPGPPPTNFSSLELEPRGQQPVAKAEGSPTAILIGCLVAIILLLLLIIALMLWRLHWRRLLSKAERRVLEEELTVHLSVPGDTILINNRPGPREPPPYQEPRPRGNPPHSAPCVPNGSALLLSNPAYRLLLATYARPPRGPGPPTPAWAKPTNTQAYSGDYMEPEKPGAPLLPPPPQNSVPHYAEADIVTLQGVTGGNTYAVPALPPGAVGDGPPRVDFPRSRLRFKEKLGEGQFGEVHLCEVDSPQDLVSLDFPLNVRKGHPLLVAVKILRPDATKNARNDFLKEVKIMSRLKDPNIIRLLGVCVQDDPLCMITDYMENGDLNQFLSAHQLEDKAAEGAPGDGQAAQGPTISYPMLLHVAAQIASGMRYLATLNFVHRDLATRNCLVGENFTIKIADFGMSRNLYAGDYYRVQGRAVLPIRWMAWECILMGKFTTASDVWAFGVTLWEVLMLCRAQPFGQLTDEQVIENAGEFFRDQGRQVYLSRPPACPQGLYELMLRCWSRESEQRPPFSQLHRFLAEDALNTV
Protocol: as §1

RSK2 = target: T33, RSK2 (Homo sapiens, UniProt P51812)
T33 construct: purchased Carna Biosciences
Protocol: as §1

HIPK2 = target: T34, HIPK2 (Homo sapiens, UniProt Q9H2X6)
T34 construct: purchased Carna Biosciences
T34 sequence (Q9H2X6 whole entry): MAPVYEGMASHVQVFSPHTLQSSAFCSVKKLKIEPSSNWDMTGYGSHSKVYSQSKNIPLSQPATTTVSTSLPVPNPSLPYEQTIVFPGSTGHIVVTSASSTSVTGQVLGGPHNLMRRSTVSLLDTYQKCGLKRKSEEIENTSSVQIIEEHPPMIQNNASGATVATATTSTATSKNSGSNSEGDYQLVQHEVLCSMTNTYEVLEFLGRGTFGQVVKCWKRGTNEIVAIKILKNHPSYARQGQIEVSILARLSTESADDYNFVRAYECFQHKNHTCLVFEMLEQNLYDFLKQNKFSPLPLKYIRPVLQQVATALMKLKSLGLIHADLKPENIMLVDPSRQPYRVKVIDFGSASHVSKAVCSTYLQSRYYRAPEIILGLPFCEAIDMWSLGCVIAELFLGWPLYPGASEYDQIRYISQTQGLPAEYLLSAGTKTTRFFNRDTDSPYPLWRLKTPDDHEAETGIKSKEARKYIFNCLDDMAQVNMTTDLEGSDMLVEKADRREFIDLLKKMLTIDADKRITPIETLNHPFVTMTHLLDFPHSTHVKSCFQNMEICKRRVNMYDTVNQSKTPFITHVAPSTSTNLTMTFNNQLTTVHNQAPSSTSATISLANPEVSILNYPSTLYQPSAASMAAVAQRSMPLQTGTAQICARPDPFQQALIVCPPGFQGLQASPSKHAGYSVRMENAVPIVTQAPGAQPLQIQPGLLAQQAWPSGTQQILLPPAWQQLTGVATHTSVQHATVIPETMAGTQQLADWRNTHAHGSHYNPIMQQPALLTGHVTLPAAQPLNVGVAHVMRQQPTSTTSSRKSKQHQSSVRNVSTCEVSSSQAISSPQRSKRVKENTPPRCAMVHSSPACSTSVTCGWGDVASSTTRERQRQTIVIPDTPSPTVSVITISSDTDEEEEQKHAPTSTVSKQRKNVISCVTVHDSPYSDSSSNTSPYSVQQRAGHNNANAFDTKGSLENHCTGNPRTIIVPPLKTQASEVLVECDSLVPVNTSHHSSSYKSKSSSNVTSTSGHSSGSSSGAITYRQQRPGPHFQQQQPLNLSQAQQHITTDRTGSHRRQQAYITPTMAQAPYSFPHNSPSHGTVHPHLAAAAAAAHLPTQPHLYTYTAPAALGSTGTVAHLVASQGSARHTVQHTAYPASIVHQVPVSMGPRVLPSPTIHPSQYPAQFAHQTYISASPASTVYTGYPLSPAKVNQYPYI
Protocol: as §1

MAP2K3 = target: T35, MAP2K3 (Homo sapiens, UniProt P46734)
T35 construct: purchased Carna Biosciences
Protocol: as §1

FGFR3 = target: T36, FGFR3 (Homo sapiens, UniProt P22607)
T36 construct: purchased Carna Biosciences
Protocol: as §1

HIPK1 = target: T37, HIPK1 (Homo sapiens, UniProt Q86Z02)
T37 construct: purchased Carna Biosciences
Protocol: as §1

SYK = target: T38, SYK (Homo sapiens, UniProt P43405)
T38 construct: purchased Carna Biosciences
Protocol: as §1

MAP4K2 = target: T39, MAP4K2 (Homo sapiens, UniProt Q12851)
T39 construct: purchased Carna Biosciences
Protocol: as §1

ABL = target: T40, ABL (Homo sapiens, UniProt P00519)
T40 construct: purchased Carna Biosciences
Protocol: as §1

MAPKAPK5 = target: T41, MAPKAPK5 (Homo sapiens, UniProt Q8IW41)
T41 construct: purchased Carna Biosciences
Protocol: as §1

FES = target: T42, FES (Homo sapiens, UniProt P07332)
T42 construct: purchased Carna Biosciences
T42 sequence (P07332 whole entry): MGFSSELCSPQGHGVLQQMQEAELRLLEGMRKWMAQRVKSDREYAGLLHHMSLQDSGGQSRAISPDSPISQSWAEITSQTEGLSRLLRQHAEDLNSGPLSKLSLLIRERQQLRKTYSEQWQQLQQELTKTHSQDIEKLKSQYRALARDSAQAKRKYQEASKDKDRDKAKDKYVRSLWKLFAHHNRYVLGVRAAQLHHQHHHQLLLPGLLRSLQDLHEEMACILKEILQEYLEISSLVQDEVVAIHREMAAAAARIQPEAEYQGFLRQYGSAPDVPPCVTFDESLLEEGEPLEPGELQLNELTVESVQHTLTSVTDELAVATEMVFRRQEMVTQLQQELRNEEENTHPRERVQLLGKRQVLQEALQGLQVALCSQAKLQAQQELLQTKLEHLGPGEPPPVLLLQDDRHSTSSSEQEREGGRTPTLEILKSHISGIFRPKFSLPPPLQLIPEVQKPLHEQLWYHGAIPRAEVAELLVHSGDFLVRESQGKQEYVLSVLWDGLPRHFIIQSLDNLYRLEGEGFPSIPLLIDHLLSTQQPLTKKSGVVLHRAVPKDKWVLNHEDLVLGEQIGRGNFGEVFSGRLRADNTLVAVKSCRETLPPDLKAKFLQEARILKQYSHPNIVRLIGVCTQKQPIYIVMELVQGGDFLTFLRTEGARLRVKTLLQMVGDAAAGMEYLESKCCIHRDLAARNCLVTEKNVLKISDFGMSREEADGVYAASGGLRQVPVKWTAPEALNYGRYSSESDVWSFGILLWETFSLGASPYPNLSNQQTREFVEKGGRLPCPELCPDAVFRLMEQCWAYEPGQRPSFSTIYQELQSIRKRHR
Protocol: as §1

BRAF = target: T43, BRAF (Homo sapiens, UniProt P15056)
T43 construct: purchased Carna Biosciences
Protocol: as §1

CC[C@H](Nc1nc(NCc2cnc(C)cc2C)c2ncn(C(C)C)c2n1)[C@@H](C)O [Fadraciclib, 2-pentanol, 3-[[6-[[(4,6-dimethyl-3-pyridinyl)methyl]amino]-9-(1-methylethyl)-9Hpurin-2-yl]amino]-, (2R,3S)]
inhibition at 1 µM (HER2): -17.6 ± 1%
inhibition at 1 µM (TSSK2): 0.7%
inhibition at 1 µM (DAPK1): -8.8 ± 0.1%
inhibition at 1 µM (MAP2K7): -10.6 ± 0.6%
inhibition at 1 µM (FLT3): -8.7 ± 0.1%
inhibition at 1 µM (CDK7): 86.7 ± 10.9%
inhibition at 1 µM (TXK): 3.1 ± 0.1%
inhibition at 1 µM (MLK3): -4.9 ± 0.4%
inhibition at 1 µM (SRM): 3.5 ± 0.1%
inhibition at 1 µM (MET[Y1235D]): 2.4 ± 0.1%
inhibition at 1 µM (TIE2): 2.9 ± 0.2%
inhibition at 1 µM (JNK3): 10.6 ± 0.6%
inhibition at 1 µM (Erk2): 19.6 ± 0.8%
inhibition at 1 µM (ROCK1): -1.3%
inhibition at 1 µM (PDGFRb): 3.2 ± 0.1%
inhibition at 1 µM (EphA2): 3.8%
inhibition at 1 µM (AKT1): -0.6%
inhibition at 1 µM (FGR): 3.3 ± 0.1%
inhibition at 1 µM (IRAK4): -10.1 ± 0.1%
inhibition at 1 µM (CDK4): 75.7 ± 5%
inhibition at 1 µM (PDGFRa[T674I]): -11.4 ± 0.2%
inhibition at 1 µM (AKT3): 2.4 ± 0.3%
inhibition at 1 µM (MAPKAPK3): -6.1 ± 0.3%
inhibition at 1 µM (BRAF[V600E]): -1.9 ± 0.1%
inhibition at 1 µM (MLK2): 0.6%
inhibition at 1 µM (EEF2K): -10.3 ± 0.2%
inhibition at 1 µM (EGFR): -10.8 ± 0.4%
inhibition at 1 µM (CDK2): 97.3%
inhibition at 1 µM (CHK1): 1.3%
inhibition at 1 µM (CaMK1d): -14.5 ± 0.1%
inhibition at 1 µM (NEK9): -23.1 ± 0.2%
inhibition at 1 µM (DDR1): -9.3 ± 0.1%
inhibition at 1 µM (RSK2): 5.6 ± 0.1%
inhibition at 1 µM (HIPK2): 2.5 ± 0.1%
inhibition at 1 µM (MAP2K3): -12.3 ± 0.3%
inhibition at 1 µM (FGFR3): -5.6 ± 0.2%
inhibition at 1 µM (HIPK1): 6.8 ± 0.3%
inhibition at 1 µM (SYK): 2.2 ± 0.1%
inhibition at 1 µM (MAP4K2): 2 ± 0.1%
inhibition at 1 µM (ABL): -12.7 ± 0.3%
inhibition at 1 µM (MAPKAPK5): -14.5 ± 0.2%
inhibition at 1 µM (FES): 14.9 ± 1.1%
inhibition at 1 µM (BRAF): -8.4 ± 1%
